{
  "source": "patent US20130324461A1",
  "about": "“METHODS AND COMPOSITIONS FOR PREVENTING OR TREATING OBESITY” (priority 2010, published 2013)",
  "type_in_all_cases": "in vivo",
  "key": {"[1]": {"assay": "Body weight of mice on low-fat diet, treated or untreated with A2AR agonist CGS21680 (Example 3, FIG. 3 right panel)", "experimental": "Mice were untreated or treated with the A2AR agonist CGS21680 (Tocris) at different time points. CGS21680 (Tocris) was injected s.c. at a dose of 0.5 mg/kg daily either from week 9 to week 13, from week 13 to week 19, or from week 9 to week 19, as indicated in the FIG. 3 legends. Male mice (8 mice per group) were fed a high-fat diet (where 60% of calories are derived from fat) or low-fat diet (where 10% of calories are derived from fat) and the weight of the mice was measured. Special diets were obtained from Research Diets (New Brunswick, N.J.). One group of mice received no A2AR agonist at all (represented by diamonds in the graphs of FIG. 4); another group of mice was received CGS21680 only from week 9 to 13 (triangles); another group of mice received CGS21680 only from week 13 to 19 (squares); another group of mice received CGS21680 from week 9 to 19 (crosses). […] Mice in the group that received no A2AR agonist at all (diamonds) gained a small amount of weight reaching up to ˜35 g by week 19. This is much less than the weight reached by mice on the high-fat diet (˜50 g). […] Mice that were not injected with from week 9 to 13 (squares) did gain weight by week 13."}, "serum leptin": {"system": "serum leptin", "assay": "Serum leptin levels by ELISA after A2AR agonist injection (Example 4, FIG. 4)", "conditions": "8 week old female C57BL/6 mice, 0.5 mg/kg s.c., after 1 and 2 h, p<0.05", "experimental": "To elucidate the mechanism by which A2AR agonists reduce weight gain, serum leptin levels were quantified in mice treated with an A2AR agonist. 8 week old Female C57BL/6 mice received subcutaneous injection of the A2AR agonist CGS21680 (0.5 mg/kg). After 1 and 2 h, serum leptin levels were measured by ELISA. […] The data shown in FIG. 4 represent average±SD (n=4). The statistical significance was calculated by Student's t-test: *, p<0.05."}, "[2]": {"assay": "Body weight of mice on high-fat diet, treated or untreated with A2AR agonist CGS21680 (Example 3, FIG. 3 left panel)", "experimental": "Mice were untreated or treated with the A2AR agonist CGS21680 (Tocris) at different time points. CGS21680 (Tocris) was injected s.c. at a dose of 0.5 mg/kg daily either from week 9 to week 13, from week 13 to week 19, or from week 9 to week 19, as indicated in the FIG. 3 legends. Male mice (8 mice per group) were fed a high-fat diet (where 60% of calories are derived from fat) or low-fat diet (where 10% of calories are derived from fat) and the weight of the mice was measured. Special diets were obtained from Research Diets (New Brunswick, N.J.). One group of mice received no A2AR agonist at all (represented by diamonds in the graphs of FIG. 4); another group of mice was received CGS21680 only from week 9 to 13 (triangles); another group of mice received CGS21680 only from week 13 to 19 (squares); another group of mice received CGS21680 from week 9 to 19 (crosses). […] Some mice in the group that received no A2AR agonist at all (diamonds) almost doubled their weight between weeks 9 and 19, reaching up to 50 g total weight. […] Mice that were not injected from week 9 to 13 (squares) reached almost 40 g of weight by week 13."}, "[3]": {"assay": "Weight gain of mice on high-fat diet treated with various A2AR agonists (Example 5, FIG. 5)", "conditions": "male C57BL/6 mice", "experimental": "Mice receiving a high-fat diet were treated with the A2AR agonists 2-[4-(2-aminoethylaminocarbonylethyl)phenylethylamino]-5′-N-ethylcarboxamidoadenosine (APEC) bistrifluoroacetic acid or 2 5′-N-ethylcarboxamidoadenosine (NECA). Male C57BL/6 mice (n=5) were provided a high-fat diet beginning at day 0. Also beginning on day 0, the mice were treated with daily subcutaneous injection of A2AR agonist. APEC was administered at 0.25 mg/kg/day, and NECA at 0.02 mg/kg/day."}},
  "data": [
    {"smiles": "CCNC(=O)[C@H]1O[C@@H](n2cnc3c(N)nc(NCCc4ccc(CCC(=O)O)cc4)nc32)[C@H](O)[C@@H]1O", "note": "[CGS21680, 3-[4-[2-[[6-amino-9-[(2R,3R,4S,5S)-5-(ethylcarbamoyl)-3,4-dihydroxy-oxolan-2-yl]purin-2-yl]amino]ethyl]phenyl]propanoic acid]", "values": [
      {"measurement": "weight gain", "setting": "[1]; male mice, low-fat diet (10% of calories from fat), 0.5 mg/kg s.c. daily from week 9 to week 19", "value": "gained very little weight"},
      {"measurement": "weight gain until week 13", "setting": "[1]; male mice, low-fat diet, 0.5 mg/kg s.c. daily only from week 9 to 13", "value": "gained essentially no weight"},
      {"measurement": "further weight gain after start of injections", "setting": "[1]; male mice, low-fat diet, 0.5 mg/kg s.c. daily only from week 13 to 19", "value": "essentially no more weight gain"},
      {"measurement": "effect on weight gain (overall statement)", "setting": "[1]; mice on low fat diet, 0.5 mg/kg s.c. daily", "value": "prevented or limited weight gain"},
      {"measurement": "serum leptin levels", "setting": "serum leptin", "value": "significantly increased"},
      {"measurement": "weight gain", "setting": "[2]; male mice, high-fat diet (60% of calories from fat), 0.5 mg/kg s.c. daily from week 9 to week 19", "value": "gained little or no weight"},
      {"measurement": "weight gain between weeks 9 and 13", "setting": "[2]; male mice, high-fat diet, 0.5 mg/kg s.c. daily only from week 9 to 13", "value": "gained essentially no weight"},
      {"measurement": "further weight gain after start of injections", "setting": "[2]; male mice, high-fat diet, 0.5 mg/kg s.c. daily only from week 13 to 19", "value": "Essentially no further weight gain"},
      {"measurement": "body weight gain", "setting": "[2]; mice treated continuously (week 9 to 19), regardless of high-fat or low-fat diet", "value": "minimal"}
    ]},
    {"smiles": "CCNC(=O)[C@H]1O[C@@H](n2cnc3c(N)ncnc32)[C@H](O)[C@@H]1O", "note": "[NECA, 5′-N-ethylcarboxamidoadenosine]", "values": [
      {"measurement": "weight gain compared to the control group", "setting": "[3]; high-fat diet from day 0, daily s.c. 0.02 mg/kg/day", "value": "dramatic reduction in weight gain"}
    ]},
    {"smiles": "CCNC(=O)[C@H]1O[C@@H](n2cnc3c(N)nc(NCCc4ccc(CCC(=O)NCCN)cc4)nc32)[C@H](O)[C@@H]1O", "note": "[APEC, 2-[4-(2-aminoethylaminocarbonylethyl)phenylethylamino]-5′-N-ethylcarboxamidoadenosine]", "values": [
      {"measurement": "weight gain compared to the control group", "setting": "[3]; high-fat diet from day 0, daily s.c. 0.25 mg/kg/day", "value": "dramatic reduction in weight gain"}
    ]}
  ]
}
